Assay results: patent US9695133B2, “Quinazolinone-based oncogenic-RAS-selective lethal compounds and their use” (THE TRUSTEES OF COLUMBIA UNIVERSITY IN THE CITY OF NEW YORK, priority 2012, dated 2017)
Several values for one entry are separate records, joined by “and”; a condition that tells them apart may be missing. Identical values can stand only once. Like-named read-outs stand apart in the source and are kept apart here.

Key:
[1] = male, C57BL6/j, mouse, in vivo, po, 20 mg/kg
[2] = Water solubility by microplate nephelometer; assay type: physicochemical
Protocol: The water solubility was determined using a microplate nephelometer (NEPHELOstar, BMG labtech, Cary, N.C.).

[3] = Mouse liver microsome metabolic stability test; assay type: in vitro ADME; conditions: mouse liver microsome assay
[4] = Plasma pharmacokinetics after single IV and PO dose; assay type: in vivo, male C57BL6/j mice; conditions: for Plasma Concentration, individual mice / concentration at 0.5 hr / concentration at 1 hr / concentration at 2 hr / concentration at 4 hr / concentration at 8 hr / concentration at 12 hr / Vd: 20 mg/kg; for MRT inf: read-out: MRT(0-∞)
Protocol: Three mice in each group were used for blood collection at each time point. Blood samples (approximately 400 μL) were collected after euthanasia using carbon dioxide inhalation via cardiac puncture pre-dose and 30 minutes, 1 hour, 2 hours, 4 hours, 8 hours and 12 hours post-dose. Blood samples were placed into tubes containing sodium heparin and centrifuged at 8000 rpm for 6 minutes at 4° C. to separate plasma from the blood samples. Following centrifugation, the resulting plasma was transferred to clean tubes and stored frozen at −80° C. until bioanalysis by the Testing Facility.

[5] = Postdose observations in the pharmacokinetic study; assay type: in vivo, male C57BL6/j mice; conditions: single 20 mg/kg IV or PO
in vivo = conditions: male, C57BL6/j, mouse, 20 mg/kg
BJeLR cells = assay: RSL testing: growth inhibition (alamar blue) in BJeLR cells; assay type: cell-based; conditions: Homo sapiens, BJeLR
Protocol: Cell viability was determined using alamar blue and percent growth inhibition computed as described previously (Id.).

[6] = male, C57BL6/j, mouse, plasma, IV 20 mg/kg
[7] = male, C57BL6/j, mouse, plasma, PO 20 mg/kg
[8] = iv, Brain Concentration, individual mice
[9] = iv, Brain-Plasma Concentration Ratio, Mean
[10] = iv, Brain-Plasma Concentration Ratio, individual mice
[11] = po, Brain Concentration, individual mice
[12] = po, Brain-Plasma Concentration Ratio, Mean
[13] = po, Brain-Plasma Concentration Ratio, individual mice

CC(C)Oc1ccc(CN2CCNCC2)cc1-n1c(CN2CCN(C(=O)COc3ccc(Cl)cc3)CC2)nc2ccccc2c1=O [PE, 2-((4-(2-(4-chlorophenoxy)ethanoyl)piperazin-1-yl)methyl)-3-(2-isopropoxy-5-(piperazin-1-ylmethyl)phenyl)quinazolin-4(3H)-one]
Brain Concentration, individual mice ([1]; 1 h): 18.92 ng/g
Brain-Plasma Concentration Ratio, individual mice ([1]; 1 h): 0.01 mL/g
Brain Concentration, individual mice ([1]; 2 h): 9.49 ng/g
Brain-Plasma Concentration Ratio, individual mice ([1]; 2 h): 0.01 mL/g
solubility ([2]; water, nephelometry): improved solubility
metabolic stability [3]: improved metabolic stability in comparison to erastin
Plasma Concentration, individual mice ([4]; IV 20 mg/kg, 0.5 hr): 4625.87 ng/mL and 2218.81 ng/mL and 2826.92 ng/mL
Plasma Concentration, individual mice ([4]; IV 20 mg/kg, 1 hr): 1548.38 ng/mL and 657.50 ng/mL and 1509.78 ng/mL
Plasma Concentration, individual mice ([4]; IV 20 mg/kg, 2 hr): 1016.04 ng/mL and 1054.66 ng/mL
Plasma Concentration, individual mice ([4]; IV 20 mg/kg, 4 hr): 200.14 ng/mL and 657.19 ng/mL and 379.24 ng/mL
Plasma Concentration, individual mice ([4]; IV 20 mg/kg, 8 hr): 105.57 ng/mL and 148.67 ng/mL
Plasma Concentration, individual mice ([4]; IV 20 mg/kg, 12 hr): 34.53 ng/mL and 159.78 ng/mL and 96.08 ng/mL
Plasma Concentration, individual mice ([4]; PO 20 mg/kg, 0.5 hr): 365.89 ng/mL and 403.60 ng/mL and 87.63 ng/mL
Plasma Concentration, individual mice ([4]; PO 20 mg/kg, 1 hr): 1635.86 ng/mL and 1288.53 ng/mL
Plasma Concentration, individual mice ([4]; PO 20 mg/kg, 2 hr): 1260.55 ng/mL and 527.50 ng/mL and 1016.24 ng/mL
Plasma Concentration, individual mice ([4]; PO 20 mg/kg, 4 hr): 642.39 ng/mL and 669.76 ng/mL
Plasma Concentration, individual mice ([4]; PO 20 mg/kg, 8 hr): 23.99 ng/mL and 28.91 ng/mL
Plasma Concentration, individual mice ([4]; PO 20 mg/kg, 12 hr): 21.10 ng/mL and 15.06 ng/mL
concentration at 0.5 hr ([4]; male, C57BL6/j, mouse, plasma, iv, IV 20 mg/kg, 0.5 hr): 3220 ng/mL
concentration at 1 hr ([4]; male, C57BL6/j, mouse, plasma, iv, IV 20 mg/kg, 1 hr, read-out: Plasma Concentration, Mean): 1240 ng/mL
concentration at 2 hr ([4]; male, C57BL6/j, mouse, plasma, iv, IV 20 mg/kg, 2 hr, read-out: Plasma Concentration, Mean): 997 ng/mL
concentration at 2 hr ([4]; male, C57BL6/j, mouse, plasma, iv, IV 20 mg/kg, 2 hr, read-out: Plasma Concentration, individual mice): 920 ng/mL
concentration at 4 hr ([4]; male, C57BL6/j, mouse, plasma, iv, IV 20 mg/kg, 4 hr, read-out: Plasma Concentration, Mean): 412 ng/mL
concentration at 8 hr ([4]; male, C57BL6/j, mouse, plasma, iv, IV 20 mg/kg, 8 hr, read-out: Plasma Concentration, Mean): 134 ng/mL
concentration at 8 hr ([4]; male, C57BL6/j, mouse, plasma, iv, IV 20 mg/kg, 8 hr, read-out: Plasma Concentration, individual mice): 147 ng/mL
concentration at 12 hr ([4]; male, C57BL6/j, mouse, plasma, iv, IV 20 mg/kg, 12 hr, read-out: Plasma Concentration, Mean): 96.8 ng/mL
Vd ([4]; male, C57BL6/j, mouse, plasma, iv, plasma, IV 20 mg/kg, read-out: Vz): 9.63 L/kg
Vd ([4]; male, C57BL6/j, mouse, plasma, iv, plasma, IV 20 mg/kg, read-out: volume of distribution at terminal phase): 9.63 L/kg
concentration at 0.5 hr ([4]; male, C57BL6/j, mouse, plasma, po, PO 20 mg/kg, 0.5 hr): 286 ng/mL
concentration at 1 hr ([4]; male, C57BL6/j, mouse, plasma, po, PO 20 mg/kg, 1 hr, read-out: Plasma Concentration, Mean): 1390 ng/mL
concentration at 1 hr ([4]; male, C57BL6/j, mouse, plasma, po, PO 20 mg/kg, 1 hr, read-out: Plasma Concentration, individual mice): 1240 ng/mL
concentration at 2 hr ([4]; male, C57BL6/j, mouse, plasma, po, PO 20 mg/kg, 2 hr, read-out: Plasma Concentration, Mean): 935 ng/mL
concentration at 4 hr ([4]; male, C57BL6/j, mouse, plasma, po, PO 20 mg/kg, 4 hr, read-out: Plasma Concentration, Mean): 696 ng/mL
concentration at 4 hr ([4]; male, C57BL6/j, mouse, plasma, po, PO 20 mg/kg, 4 hr, read-out: Plasma Concentration, individual mice): 777 ng/mL
concentration at 8 hr ([4]; male, C57BL6/j, mouse, plasma, po, PO 20 mg/kg, 8 hr, read-out: Plasma Concentration, Mean): 24 ng/mL
concentration at 8 hr ([4]; male, C57BL6/j, mouse, plasma, po, PO 20 mg/kg, 8 hr, read-out: Plasma Concentration, individual mice): 19.1 ng/mL
concentration at 12 hr ([4]; male, C57BL6/j, mouse, plasma, po, PO 20 mg/kg, 12 hr, read-out: Plasma Concentration, Mean): 18.8 ng/mL
concentration at 12 hr ([4]; male, C57BL6/j, mouse, plasma, po, PO 20 mg/kg, 12 hr, read-out: Plasma Concentration, individual mice): 20.2 ng/mL
bioavailability ([4]; male, C57BL6/j, mouse, plasma, PO 20 mg/kg vs IV 20 mg/kg, read-out: F (bioavailability)): 57.1%
AUC(0-inf) [4, 6]: 8490 ng·h/mL
AUC(0-t) [4, 6]: 8100 ng·h/mL
Cmax [4, 6]: 3220 ng/mL
Tmax [4, 6]: 0.5 h
half-life [4, 6]: 2.84 h
MRT inf [4, 6]: 2.67 h
clearance ([4]; male, C57BL6/j, mouse, plasma, IV 20 mg/kg, read-out: systemic clearance (converted)): 39.2 mL/min/kg
AUC(0-inf) [4, 7]: 4850 ng·h/mL
AUC(0-t) [4, 7]: 4810 ng·h/mL
Cmax [4, 7]: 1390 ng/mL
Tmax [4, 7]: 1 h
half-life [4, 7]: 1.57 h
MRT inf [4, 7]: 2.91 h
CLz ([4]; plasma, IV 20 mg/kg): 39.2413 mL/min/kg
postdose observations [5]: No abnormal observations were noted
MRT inf (in vivo; iv): 9.91 h
Tmax (in vivo; iv): 0.5 h
half-life (in vivo; iv): 6.41 h
concentration at 0.5 h (in vivo; iv, Brain Concentration, Mean): 96.1 ng/g
concentration at 1 h (in vivo; iv, Brain Concentration, Mean): 85.5 ng/g
concentration at 2 h (in vivo; iv, Brain Concentration, Mean): 73.7 ng/g
concentration at 4 h (in vivo; iv, Brain Concentration, Mean): 48 ng/g
concentration at 8 h (in vivo; iv, Brain Concentration, Mean): 30 ng/g
concentration at 12 h (in vivo; iv, Brain Concentration, Mean): 29.8 ng/g
concentration at 0.5 h (in vivo; [8]): 116 ng/g
concentration at 1 h (in vivo; [8]): 76.6 ng/g
concentration at 2 h (in vivo; [8]): 79.1 ng/g
concentration at 4 h (in vivo; [8]): 34.1 ng/g
Kp at 0.5 hr (in vivo; [9]): 0.03
Kp at 1 h (in vivo; [9]): 0.08
Kp at 2 h (in vivo; [9]): 0.07
Kp at 4 h (in vivo; [9]): 0.13
Kp at 8 h (in vivo; [9]): 0.23
Kp at 12 h (in vivo; [9]): 0.44
Kp at 0.5 hr (in vivo; [10]): 0.03
Kp at 2 h (in vivo; [10]): 0.09
Kp at 4 h (in vivo; [10]): 0.17
Tmax (in vivo; po): 4 h
concentration at 1 h (in vivo; po, Brain Concentration, Mean): 14.9 ng/g
concentration at 2 h (in vivo; po, Brain Concentration, Mean): 12.3 ng/g
concentration at 4 h (in vivo; po, Brain Concentration, Mean): 15.6 ng/g
concentration at 1 h (in vivo; [11]): 10.9 ng/g
concentration at 2 h (in vivo; [11]): 15.1 ng/g
concentration at 4 h (in vivo; [11]): 14.2 ng/g
Kp at 1 h (in vivo; [12]): 0.01
Kp at 2 h (in vivo; [12]): 0.01
Kp at 4 hr (in vivo; [12]): 0.02
Kp at 1 h (in vivo; [13]): 0.01
Kp at 2 h (in vivo; [13]): 0.01
Kp at 4 hr (in vivo; [13]): 0.02

CCOc1ccccc1-n1c(C(C)N2CCN(C(=O)COc3ccc(Cl)cc3)CC2)nc2ccccc2c1=O (stereo not drawn) [erastin]
solubility [2]: poor solubility
metabolic stability [3]: metabolic instability
EC50 (BJeLR cells; read-out: EC50 (BJELR)): 1800 nM
EC50 (BJeLR cells; read-out: EC50 (BJeLR)): 1780 nM
